These results are taken from article PMC7269481, “ZN148 Is a Modular Synthetic Metallo-β-Lactamase Inhibitor That Reverses Carbapenem Resistance in Gram-Negative Pathogens In Vivo” (Antimicrobial Agents and Chemotherapy, 2020).

Assay [1] has as its system NDM-1-producing K. pneumoniae 50752501. The experiment in a line: Murine neutropenic peritonitis model. In kind it is in vivo, mice. The protocol: The in vivo efficacy of meropenem (Mylan; Mylan Hospitals, Asker, Norway) in combination with ZN148 were evaluated in a murine neutropenic peritonitis model. Female NRMI mice (Taconic Biosciences, Lille Skensved, Denmark) were rendered neutropenic by intraperitoneal (i.p.) injection with cyclophosphamide (Baxter, Søborg, Denmark) at 4 days (200 mg/kg) and 1 day (100 mg/kg) prior to inoculation. Mice were inoculated i.p. with ∼5 × 10^6 CFU of NDM-1-producing K. pneumoniae 50752501. At 1 h postinoculation, the mice were injected subcutaneously (s.c.) in the neck region with ZN148 corresponding to 10, 33, or 100 mg/kg or vehicle. After 30 min, the mice were injected s.c. with 33 mg/kg meropenem or vehicle. Four mice were included for each treatment regime. At 5 h postinoculation, the mice were anesthetized. Blood was collected from axillary cutdown, and the mice were sacrificed. Subsequently, 2 ml of sterile saline was injected i.p., and the intraperitoneal fluid was sampled. Blood and intraperitoneal fluid were serially diluted in 0.9% NaCl and plated on blood agar plates with 5% horse blood (Statens Serum Institut, Copenhagen, Denmark) for CFU determination. Groups were analyzed with analysis of variance (ANOVA) Dunnett’s multiple-comparison test in Prism 7.04 (GraphPad Software, Inc.). P values of <0.05 were considered statistically significant. All animal experiments were approved by the National Committee of Animal Ethics, Denmark (permission 2014-15-0201-00171), and adhered to the standards of EU Directive 2010/63/EU.

Another assay concerns the target T1, NDM-1 (Klebsiella pneumoniae, UniProt C7C422).
T1 construct: made in house
The experiment in a line: Zinc content determination by ICP-MS, NDM-1. The settings on record: ICP-MS after preincubation. In kind it is biochemical.

The subject of assay [2] is A. baumannii co-producing MBLs and class A/D serine carbapenemases. The experiment in a line: Carbapenem MIC, A. baumannii co-producing NDM-1 and class D carbapenemases. In kind it is cell-based. The settings on record: carbapenem alone or with 50µM ZN148, one value per strain. The protocol:
MICs of carbapenems alone and in combination with inhibitors were determined by broth microdilution according to the Clinical and Laboratory Standards Institute (CLSI) guidelines ([48]) using either premade plates (TREK Diagnostic Systems/Thermo Fisher Scientific, East Grinstead, United Kingdom) with meropenem or in-house-prepared plates with meropenem, imipenem, and doripenem. ZN148 and other inhibitors were tested at a fixed concentration of 50 μM. Cation-adjusted Mueller-Hinton medium (TREK Diagnostic Systems/Thermo Fisher Scientific; Becton Dickinson, Franklin Lakes, NJ) were used as growth medium. The plates were incubated for 20 h at 37°C. ZN148, ZN222, ZN223, ZN228, and TPA were initially tested in combination with meropenem using two indicator strains: NDM-1-producing K. pneumoniae ([49], [50]) and VIM-2-producing P. aeruginosa ([51]). The activity of ZN148 were subsequently tested against two extended strain collections: (i) in combination with meropenem against MBL-producing Enterobacterales (n = 62), MBL-producing P. aeruginosa (n = 9) and MBL- and class D carbapenemase-coproducing Enterobacterales (n = 5) from the strain collection at the Norwegian National Advisory Unit on Detection of Antimicrobial Resistance and (ii) in combination with meropenem, imipenem, and doripenem against globally collected MBL-producing E. coli (n = 87), K. pneumoniae (n = 85), P. aeruginosa (n = 52), and A. baumannii (n = 6), MBL- and class A/D carbapenemase-coproducing E. coli (n = 11), K. pneumoniae (n = 15) and A. baumannii (n = 7) at IHMA Europe, Sàrl, Switzerland. E. coli ATCC 25922 and P. aeruginosa ATCC 27853 were used as quality control strains. The MBL inhibitors were also tested for intrinsic antibacterial activity against the strains.

The term MIC denotes the smallest concentration in the dilution series that meets the test's criterion for growth inhibition.

T1 sequence (C7C422 29-270, looked up): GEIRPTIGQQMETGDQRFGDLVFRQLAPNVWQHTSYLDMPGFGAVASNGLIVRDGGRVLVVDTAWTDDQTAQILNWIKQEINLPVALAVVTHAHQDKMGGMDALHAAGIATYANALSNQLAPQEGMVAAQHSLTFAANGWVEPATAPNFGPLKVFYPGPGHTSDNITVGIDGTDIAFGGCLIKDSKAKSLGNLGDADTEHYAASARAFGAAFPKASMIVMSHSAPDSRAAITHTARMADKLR

Regarding `CN(C[C@H](O)[C@@H](O)[C@H](O)[C@H](O)CO)C(=O)c1ccc(CN(Cc2ccccn2)Cc2ccccn2)nc1` [ZN148], the “CFU with ZN148 alone compared to vehicle” value in assay [1] (ZN148 alone, s.c.) was “did not result in a reduction in CFU”. The “CFU/ml with meropenem + higher ZN148 doses compared to meropenem alone” value in assay [1] (meropenem 33 mg/kg + 33 and 100 mg/kg ZN148 s.c.) is reported as “same effect”. Also, in assay [1] (s.c. meropenem 33 mg/kg + ZN148 10 mg/kg, 5 h postinoculation, P < 0.0001), the “CFU/ml in peritoneal fluid compared to meropenem alone” value is “significantly lower CFU/ml”. For the same compound, the “CFU/ml in blood compared to meropenem alone” value in assay [1] (s.c. meropenem 33 mg/kg + ZN148 10 mg/kg, 5 h postinoculation, P < 0.01) is “significantly lower CFU/ml”. In addition, on NDM-1, the “zinc removed from enzyme” value is recorded as roughly 1.3 molar equivalents.
`C[C@@H](O)[C@H]1C(=O)N2C(C(=O)O)=C(S[C@@H]3CN[C@H](C(=O)N(C)C)C3)[C@H](C)[C@H]12` [meropenem]: the MIC in assay [2] (NDM-1 + OXA-23-like strains) was greater than 64 mg/L; in assay [2] (NDM-1 + OXA-24-like, OXA-58-like strains) it was greater than 64 mg/L.
